Data published in ChEMBL document CHEMBL3991601, “The target landscape of clinical kinase drugs” (Science, 2017).
Activity calls are given as the source filed them.

These molecules were tested against T1, ADP/ATP translocase 2 (Homo sapiens, UniProt P05141).
T1 sequence (P05141 whole entry): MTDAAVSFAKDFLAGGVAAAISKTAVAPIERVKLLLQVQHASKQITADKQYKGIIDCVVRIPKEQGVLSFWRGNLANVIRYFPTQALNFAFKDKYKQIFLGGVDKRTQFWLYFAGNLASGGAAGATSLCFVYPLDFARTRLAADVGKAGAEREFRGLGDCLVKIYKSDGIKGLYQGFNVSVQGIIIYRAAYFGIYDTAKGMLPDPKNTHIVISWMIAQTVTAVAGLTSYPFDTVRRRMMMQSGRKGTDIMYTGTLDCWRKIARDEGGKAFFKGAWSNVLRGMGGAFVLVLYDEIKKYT
Also: in the data inactive means no Kd found up to 30 µM.

SMILES	Kd
O=C(Nc1cccc(Cl)c1)Nc1ncc(CCNc2ncnc3ccsc23)s1 [SNS-314]	> 30 µM (inactive)
CN1CCC(COc2cnc(-c3cccc(Cn4nc(-c5cccc(C#N)c5)ccc4=O)c3)nc2)CC1 [TEPOTINIB]	> 30 µM (inactive)
Nc1nc(N)c2nc(-c3cccc(O)c3)c(-c3cccc(O)c3)nc2n1 [TG100-115]	> 30 µM (inactive)
CCCS(=O)(=O)Nc1ccc(F)c(C(=O)c2c[nH]c3ncc(-c4ccc(Cl)cc4)cc23)c1F [VEMURAFENIB]	> 30 µM (inactive)
CC[C@@H]1C(=O)N(C)c2cnc(Nc3ccc(C(=O)N[C@H]4CC[C@H](N5CCN(CC6CC6)CC5)CC4)cc3OC)nc2N1C(C)C [VOLASERTIB]	> 30 µM (inactive)

The molecules below were run against Bone morphogenetic protein receptor type-1A (Homo sapiens, UniProt P36894).
Sequence of Bone morphogenetic protein receptor type-1A (P36894 whole entry): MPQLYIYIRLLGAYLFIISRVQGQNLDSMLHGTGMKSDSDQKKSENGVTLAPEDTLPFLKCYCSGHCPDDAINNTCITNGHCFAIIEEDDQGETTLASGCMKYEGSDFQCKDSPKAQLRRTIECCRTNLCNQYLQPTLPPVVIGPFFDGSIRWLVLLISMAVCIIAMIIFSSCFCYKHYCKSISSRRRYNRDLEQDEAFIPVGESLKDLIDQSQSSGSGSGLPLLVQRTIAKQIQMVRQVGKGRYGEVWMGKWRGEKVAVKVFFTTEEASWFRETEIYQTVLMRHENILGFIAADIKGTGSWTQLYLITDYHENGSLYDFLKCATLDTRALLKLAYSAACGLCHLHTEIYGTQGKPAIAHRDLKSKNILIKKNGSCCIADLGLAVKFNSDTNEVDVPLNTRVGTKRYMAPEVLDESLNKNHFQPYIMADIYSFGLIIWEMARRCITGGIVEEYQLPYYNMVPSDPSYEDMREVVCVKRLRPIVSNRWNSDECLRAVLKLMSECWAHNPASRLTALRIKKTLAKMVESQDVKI

SMILES	Kd
O=C(Nc1cccc(Cl)c1)Nc1ncc(CCNc2ncnc3ccsc23)s1 [SNS-314]	> 30 µM (inactive)
CN1CCC(COc2cnc(-c3cccc(Cn4nc(-c5cccc(C#N)c5)ccc4=O)c3)nc2)CC1 [TEPOTINIB]	> 30 µM (inactive)
CCCS(=O)(=O)Nc1ccc(F)c(C(=O)c2c[nH]c3ncc(-c4ccc(Cl)cc4)cc23)c1F [VEMURAFENIB]	> 30 µM (inactive)
CC[C@@H]1C(=O)N(C)c2cnc(Nc3ccc(C(=O)N[C@H]4CC[C@H](N5CCN(CC6CC6)CC5)CC4)cc3OC)nc2N1C(C)C [VOLASERTIB]	> 30 µM (inactive)

The molecules below were run against T2, Probable ATP-dependent RNA helicase DDX6 (Homo sapiens, UniProt P26196).
T2 sequence (P26196 whole entry): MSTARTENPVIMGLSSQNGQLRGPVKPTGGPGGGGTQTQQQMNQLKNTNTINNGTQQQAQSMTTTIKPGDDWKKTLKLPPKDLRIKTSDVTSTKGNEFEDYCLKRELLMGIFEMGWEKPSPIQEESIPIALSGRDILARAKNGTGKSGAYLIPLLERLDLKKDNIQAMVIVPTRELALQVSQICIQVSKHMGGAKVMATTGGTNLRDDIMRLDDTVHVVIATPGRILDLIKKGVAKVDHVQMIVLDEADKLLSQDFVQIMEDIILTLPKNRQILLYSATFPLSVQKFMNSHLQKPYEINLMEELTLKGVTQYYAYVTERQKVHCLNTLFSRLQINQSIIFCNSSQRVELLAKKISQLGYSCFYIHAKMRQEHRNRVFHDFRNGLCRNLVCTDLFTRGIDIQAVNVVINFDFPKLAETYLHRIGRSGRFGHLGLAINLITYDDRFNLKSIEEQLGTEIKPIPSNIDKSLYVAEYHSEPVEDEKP

SMILES	Kd
O=C(Nc1cccc(Cl)c1)Nc1ncc(CCNc2ncnc3ccsc23)s1 [SNS-314]	> 30 µM (inactive)
CN1CCC(COc2cnc(-c3cccc(Cn4nc(-c5cccc(C#N)c5)ccc4=O)c3)nc2)CC1 [TEPOTINIB]	> 30 µM (inactive)
Nc1nc(N)c2nc(-c3cccc(O)c3)c(-c3cccc(O)c3)nc2n1 [TG100-115]	> 30 µM (inactive)
CCCS(=O)(=O)Nc1ccc(F)c(C(=O)c2c[nH]c3ncc(-c4ccc(Cl)cc4)cc23)c1F [VEMURAFENIB]	> 30 µM (inactive)
CC[C@@H]1C(=O)N(C)c2cnc(Nc3ccc(C(=O)N[C@H]4CC[C@H](N5CCN(CC6CC6)CC5)CC4)cc3OC)nc2N1C(C)C [VOLASERTIB]	> 30 µM (inactive)

The molecules below were run against Actin-related protein 2 (Homo sapiens, UniProt P61160).

SMILES	Kd
O=C(Nc1cccc(Cl)c1)Nc1ncc(CCNc2ncnc3ccsc23)s1 [SNS-314]	> 30 µM (inactive)
CN1CCC(COc2cnc(-c3cccc(Cn4nc(-c5cccc(C#N)c5)ccc4=O)c3)nc2)CC1 [TEPOTINIB]	> 30 µM (inactive)
CCCS(=O)(=O)Nc1ccc(F)c(C(=O)c2c[nH]c3ncc(-c4ccc(Cl)cc4)cc23)c1F [VEMURAFENIB]	> 30 µM (inactive)
CC[C@@H]1C(=O)N(C)c2cnc(Nc3ccc(C(=O)N[C@H]4CC[C@H](N5CCN(CC6CC6)CC5)CC4)cc3OC)nc2N1C(C)C [VOLASERTIB]	> 30 µM (inactive)

These molecules were tested against T3, Ribosyldihydronicotinamide dehydrogenase [quinone] (Homo sapiens, UniProt P16083).
T3 sequence (P16083 whole entry): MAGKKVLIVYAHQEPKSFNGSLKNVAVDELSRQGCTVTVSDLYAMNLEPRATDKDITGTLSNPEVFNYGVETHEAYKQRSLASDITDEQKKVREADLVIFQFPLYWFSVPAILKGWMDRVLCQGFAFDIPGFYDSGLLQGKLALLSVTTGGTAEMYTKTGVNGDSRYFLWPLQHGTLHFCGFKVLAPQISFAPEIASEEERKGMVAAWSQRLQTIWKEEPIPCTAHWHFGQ

SMILES	Kd
O=C(Nc1cccc(Cl)c1)Nc1ncc(CCNc2ncnc3ccsc23)s1 [SNS-314]	> 30 µM (inactive)
CN1CCC(COc2cnc(-c3cccc(Cn4nc(-c5cccc(C#N)c5)ccc4=O)c3)nc2)CC1 [TEPOTINIB]	0.875 µM (active)
Nc1nc(N)c2nc(-c3cccc(O)c3)c(-c3cccc(O)c3)nc2n1 [TG100-115]	> 30 µM (inactive)
CCCS(=O)(=O)Nc1ccc(F)c(C(=O)c2c[nH]c3ncc(-c4ccc(Cl)cc4)cc23)c1F [VEMURAFENIB]	> 30 µM (inactive)
CC[C@@H]1C(=O)N(C)c2cnc(Nc3ccc(C(=O)N[C@H]4CC[C@H](N5CCN(CC6CC6)CC5)CC4)cc3OC)nc2N1C(C)C [VOLASERTIB]	> 30 µM (inactive)

These molecules were tested against cAMP-dependent protein kinase catalytic subunit gamma (Homo sapiens, UniProt P22612).
Sequence of cAMP-dependent protein kinase catalytic subunit gamma (P22612 whole entry): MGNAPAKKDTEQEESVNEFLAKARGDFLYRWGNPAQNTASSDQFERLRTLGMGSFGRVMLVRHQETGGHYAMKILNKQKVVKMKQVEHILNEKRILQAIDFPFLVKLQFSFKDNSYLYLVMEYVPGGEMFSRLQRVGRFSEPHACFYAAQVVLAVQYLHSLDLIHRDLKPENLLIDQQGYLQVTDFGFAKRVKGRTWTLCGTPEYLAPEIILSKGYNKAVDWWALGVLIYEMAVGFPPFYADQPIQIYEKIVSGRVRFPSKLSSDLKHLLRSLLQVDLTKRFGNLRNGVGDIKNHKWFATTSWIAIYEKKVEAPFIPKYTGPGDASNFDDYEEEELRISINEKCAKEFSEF

SMILES	Kd
CN1CCC(COc2cnc(-c3cccc(Cn4nc(-c5cccc(C#N)c5)ccc4=O)c3)nc2)CC1 [TEPOTINIB]	> 30 µM (inactive)
Nc1nc(N)c2nc(-c3cccc(O)c3)c(-c3cccc(O)c3)nc2n1 [TG100-115]	> 30 µM (inactive)

What follows are molecules tested against Casein kinase II subunit alpha' (Homo sapiens, UniProt P19784).
Sequence of Casein kinase II subunit alpha' (P19784 whole entry): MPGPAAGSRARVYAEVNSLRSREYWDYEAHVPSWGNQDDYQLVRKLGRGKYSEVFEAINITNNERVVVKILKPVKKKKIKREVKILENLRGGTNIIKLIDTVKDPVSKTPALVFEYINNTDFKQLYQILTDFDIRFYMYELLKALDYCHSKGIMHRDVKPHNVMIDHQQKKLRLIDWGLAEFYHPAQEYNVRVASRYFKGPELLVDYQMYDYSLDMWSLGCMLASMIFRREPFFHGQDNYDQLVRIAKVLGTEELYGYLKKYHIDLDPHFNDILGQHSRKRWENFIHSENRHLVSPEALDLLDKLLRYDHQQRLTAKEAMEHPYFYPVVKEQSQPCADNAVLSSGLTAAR

SMILES	Kd
O=C(Nc1cccc(Cl)c1)Nc1ncc(CCNc2ncnc3ccsc23)s1 [SNS-314]	> 30 µM (inactive)
CN1CCC(COc2cnc(-c3cccc(Cn4nc(-c5cccc(C#N)c5)ccc4=O)c3)nc2)CC1 [TEPOTINIB]	> 30 µM (inactive)
Nc1nc(N)c2nc(-c3cccc(O)c3)c(-c3cccc(O)c3)nc2n1 [TG100-115]	> 30 µM (inactive)
CCCS(=O)(=O)Nc1ccc(F)c(C(=O)c2c[nH]c3ncc(-c4ccc(Cl)cc4)cc23)c1F [VEMURAFENIB]	> 30 µM (inactive)
CC[C@@H]1C(=O)N(C)c2cnc(Nc3ccc(C(=O)N[C@H]4CC[C@H](N5CCN(CC6CC6)CC5)CC4)cc3OC)nc2N1C(C)C [VOLASERTIB]	> 30 µM (inactive)

These molecules were tested against Serine/threonine-protein kinase 26 (Homo sapiens, UniProt Q9P289).
Sequence of Serine/threonine-protein kinase 26 (Q9P289 whole entry): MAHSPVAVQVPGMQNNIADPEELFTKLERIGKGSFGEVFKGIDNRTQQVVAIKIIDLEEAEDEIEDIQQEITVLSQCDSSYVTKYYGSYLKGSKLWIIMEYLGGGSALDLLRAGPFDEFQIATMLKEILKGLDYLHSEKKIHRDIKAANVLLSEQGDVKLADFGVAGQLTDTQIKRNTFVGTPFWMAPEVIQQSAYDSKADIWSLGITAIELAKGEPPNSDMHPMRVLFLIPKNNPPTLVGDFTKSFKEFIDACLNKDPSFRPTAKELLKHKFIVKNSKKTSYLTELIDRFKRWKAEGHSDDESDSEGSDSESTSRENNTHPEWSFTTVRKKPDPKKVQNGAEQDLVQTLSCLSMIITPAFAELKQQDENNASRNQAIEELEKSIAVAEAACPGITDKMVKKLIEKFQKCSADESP

SMILES	Kd
O=C(Nc1cccc(Cl)c1)Nc1ncc(CCNc2ncnc3ccsc23)s1 [SNS-314]	> 30 µM (inactive)
CCCS(=O)(=O)Nc1ccc(F)c(C(=O)c2c[nH]c3ncc(-c4ccc(Cl)cc4)cc23)c1F [VEMURAFENIB]	> 30 µM (inactive)
CC[C@@H]1C(=O)N(C)c2cnc(Nc3ccc(C(=O)N[C@H]4CC[C@H](N5CCN(CC6CC6)CC5)CC4)cc3OC)nc2N1C(C)C [VOLASERTIB]	> 30 µM (inactive)

What follows are molecules tested against T4, Structural maintenance of chromosomes protein 1A (Homo sapiens, UniProt Q14683).
T4 sequence (Q14683 whole entry): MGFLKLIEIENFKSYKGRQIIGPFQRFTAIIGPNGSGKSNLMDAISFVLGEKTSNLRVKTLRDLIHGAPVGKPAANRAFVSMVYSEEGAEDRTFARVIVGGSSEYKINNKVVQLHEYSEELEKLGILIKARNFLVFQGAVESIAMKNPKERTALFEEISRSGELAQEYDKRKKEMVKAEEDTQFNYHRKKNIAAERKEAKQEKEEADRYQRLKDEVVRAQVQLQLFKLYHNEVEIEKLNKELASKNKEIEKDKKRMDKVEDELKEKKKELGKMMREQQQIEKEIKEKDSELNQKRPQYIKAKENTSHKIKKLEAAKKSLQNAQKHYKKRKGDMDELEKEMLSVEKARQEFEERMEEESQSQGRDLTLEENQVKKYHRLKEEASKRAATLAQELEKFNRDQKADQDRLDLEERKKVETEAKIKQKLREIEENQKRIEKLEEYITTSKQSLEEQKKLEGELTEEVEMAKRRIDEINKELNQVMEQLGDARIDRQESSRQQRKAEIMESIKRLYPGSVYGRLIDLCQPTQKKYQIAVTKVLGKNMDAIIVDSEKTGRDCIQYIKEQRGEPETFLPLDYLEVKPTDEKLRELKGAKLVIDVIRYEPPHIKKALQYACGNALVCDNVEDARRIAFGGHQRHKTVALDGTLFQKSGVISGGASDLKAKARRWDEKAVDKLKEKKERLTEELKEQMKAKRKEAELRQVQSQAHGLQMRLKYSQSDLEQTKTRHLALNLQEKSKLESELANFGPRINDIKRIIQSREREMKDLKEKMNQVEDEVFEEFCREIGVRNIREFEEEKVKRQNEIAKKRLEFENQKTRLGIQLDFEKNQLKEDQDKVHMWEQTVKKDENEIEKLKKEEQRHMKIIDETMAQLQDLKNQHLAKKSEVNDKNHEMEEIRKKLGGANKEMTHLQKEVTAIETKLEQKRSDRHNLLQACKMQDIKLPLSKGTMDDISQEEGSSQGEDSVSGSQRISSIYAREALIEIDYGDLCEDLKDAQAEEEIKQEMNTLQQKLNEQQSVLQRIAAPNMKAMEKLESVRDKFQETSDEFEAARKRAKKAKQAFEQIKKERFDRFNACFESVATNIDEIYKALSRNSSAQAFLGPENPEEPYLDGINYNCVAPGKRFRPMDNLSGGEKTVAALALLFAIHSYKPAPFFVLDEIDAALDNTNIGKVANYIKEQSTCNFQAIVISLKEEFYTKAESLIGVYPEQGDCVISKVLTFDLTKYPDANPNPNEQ

SMILES	Kd
O=C(Nc1cccc(Cl)c1)Nc1ncc(CCNc2ncnc3ccsc23)s1 [SNS-314]	> 30 µM (inactive)
CN1CCC(COc2cnc(-c3cccc(Cn4nc(-c5cccc(C#N)c5)ccc4=O)c3)nc2)CC1 [TEPOTINIB]	> 30 µM (inactive)
CCCS(=O)(=O)Nc1ccc(F)c(C(=O)c2c[nH]c3ncc(-c4ccc(Cl)cc4)cc23)c1F [VEMURAFENIB]	> 30 µM (inactive)
CC[C@@H]1C(=O)N(C)c2cnc(Nc3ccc(C(=O)N[C@H]4CC[C@H](N5CCN(CC6CC6)CC5)CC4)cc3OC)nc2N1C(C)C [VOLASERTIB]	> 30 µM (inactive)

The molecules below were run against Serine/threonine-protein kinase/endoribonuclease IRE1 (Homo sapiens, UniProt O75460).
Sequence of Serine/threonine-protein kinase/endoribonuclease IRE1 (O75460 whole entry): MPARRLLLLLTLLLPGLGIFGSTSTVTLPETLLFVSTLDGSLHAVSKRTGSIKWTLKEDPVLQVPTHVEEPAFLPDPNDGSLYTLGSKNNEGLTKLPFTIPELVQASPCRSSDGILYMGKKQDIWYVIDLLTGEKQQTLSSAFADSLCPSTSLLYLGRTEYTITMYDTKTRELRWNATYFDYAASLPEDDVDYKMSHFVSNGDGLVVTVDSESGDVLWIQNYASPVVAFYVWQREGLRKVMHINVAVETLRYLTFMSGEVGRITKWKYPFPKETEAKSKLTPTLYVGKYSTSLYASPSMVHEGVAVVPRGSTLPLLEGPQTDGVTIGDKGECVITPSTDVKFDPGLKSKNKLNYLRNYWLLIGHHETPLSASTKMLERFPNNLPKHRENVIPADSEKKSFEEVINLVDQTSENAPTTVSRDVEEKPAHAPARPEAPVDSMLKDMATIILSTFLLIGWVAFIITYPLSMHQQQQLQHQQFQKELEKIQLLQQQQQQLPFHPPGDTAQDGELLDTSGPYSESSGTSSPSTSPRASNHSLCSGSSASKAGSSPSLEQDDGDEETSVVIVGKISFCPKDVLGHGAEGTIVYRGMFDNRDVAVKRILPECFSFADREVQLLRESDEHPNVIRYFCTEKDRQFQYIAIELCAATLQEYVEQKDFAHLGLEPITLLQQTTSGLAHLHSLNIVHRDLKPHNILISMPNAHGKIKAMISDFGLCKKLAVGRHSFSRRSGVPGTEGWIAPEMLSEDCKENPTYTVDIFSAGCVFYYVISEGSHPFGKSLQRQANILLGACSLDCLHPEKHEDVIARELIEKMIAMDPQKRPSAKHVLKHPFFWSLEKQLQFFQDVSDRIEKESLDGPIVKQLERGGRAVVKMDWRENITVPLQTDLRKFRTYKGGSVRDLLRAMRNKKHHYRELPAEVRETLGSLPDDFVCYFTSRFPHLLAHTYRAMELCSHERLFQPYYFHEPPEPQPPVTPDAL

SMILES	Kd
CN1CCC(COc2cnc(-c3cccc(Cn4nc(-c5cccc(C#N)c5)ccc4=O)c3)nc2)CC1 [TEPOTINIB]	> 30 µM (inactive)
CCCS(=O)(=O)Nc1ccc(F)c(C(=O)c2c[nH]c3ncc(-c4ccc(Cl)cc4)cc23)c1F [VEMURAFENIB]	> 30 µM (inactive)
CC[C@@H]1C(=O)N(C)c2cnc(Nc3ccc(C(=O)N[C@H]4CC[C@H](N5CCN(CC6CC6)CC5)CC4)cc3OC)nc2N1C(C)C [VOLASERTIB]	> 30 µM (inactive)
